This passage reports EC50 results from patent US9682976B2, “Protein kinase C inhibitors and uses thereof” (Rigel Pharmaceuticals, Inc., priority 2012, dated 2017).

For the test, the system named is PKC mediated IL-2 production. The test can be described thus: IL-2 ELISA, human primary T cell, anti CD3+CD28+. The test is classed as cell-based. Particulars: human primary T cells stimulated with αCD3 and αCD28, 24 hours. In short, it runs like this:
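IL-2 was quantified by ELISA in 24 h supernatants from primary human T cells given a 1 h compound pre-treatment at 37° C. These cells had been expanded from blood mononuclear cells on αCD3/αCD28 with IL-2, and the IL-2 was removed by washing. Stimulation used plate-bound αCD3 ([…]) plus αCD28 (5 μg/ml); the counter assay used PMA (0.5 ng/ml) with ionomycin (0.1 uM) instead.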
(In general: In an ELISA, binding on a coated surface is turned into a signal by an enzyme label.)

Bounds are passed on as bounds.

Consider `Cc1ccc(Nc2ncc(F)c(N[C@@H]3C[C@@H]4CCCN4C(C)(C)C3)n2)cc1-n1nnnc1SCCO` [Compound 282, 2-(1-(5-(4-((7R,8aS)-octahydro-5,5-dimethylindolizin-7-ylamino)-5-fluoropyrimidin-2-ylamino)-2-methylphenyl)-1H-tetrazol-5-ylthio)ethanol], for which the EC50 (Homo sapiens, T-cell, 24 h) is less than 100 nM.

As for `Cn1nc2n(c1=O)-c1cc(Nc3ncc(F)c(N[C@@H]4C[C@@H]5CCCN5C(C)(C)C4)n3)ccc1OC21CCOCC1` [Compound 283, 5-fluoro-N2-(1H-2,4-dihydron-spiro(2H-1,4-benzoxazine-4,4′-[4H]pyran)-2-methyl-[1,2,4]triazolo[3,4-c][1,4]benzoxazin-1-one-8-yl)-N4-((7R,8aS)-octahydro-5,5-dimethylindolizin-7-yl)pyrimidine-2,4-diamine], for the setting “Homo sapiens, T-cell, 24 h”, the EC50 lay in the range of 100 to 500 nM.

Under “Homo sapiens, T-cell, 24 h”, `COc1ccc(Nc2ncc(F)c(N[C@@H]3C[C@@H]4CCCN4C(C)(C)C3)n2)cc1-n1nnnc1OC1COC1` [Compound 284, 5-fluoro-N4-((7R,8aS)-octahydro-5,5-dimethylindolizin-7-yl)-N2-(4-methoxy-3-(5-(oxetan-3-yloxy)-1H-tetrazol-1-yl)phenyl)pyrimidine-2,4-diamine] showed an EC50 of less than 100 nM.

For the setting “Homo sapiens, T-cell, 24 h”, `COc1ccc(Nc2ncc(F)c(N[C@@H]3C[C@@H]4CCCN4C(C)(C)C3)n2)cc1-n1nnn(C2COC2)c1=O` [Compound 285, 1-(5-(4-((7R,8aS)-octahydro-5,5-dimethylindolizin-7-ylamino)-5-fluoropyrimidin-2-ylamino)-2-methoxyphenyl)-4-(oxetan-3-yl)-1H-tetrazol-5(4H)-one] gave an EC50 of 100 to 500 nM.

`Cc1ccc(Nc2ncc(F)c(N[C@@H]3C[C@@H]4CCCN4C(C)(C)C3)n2)cc1-n1nnnc1S(C)(=O)=O` [Compound 286, 5-fluoro-N4-((7R,8aS)-octahydro-5,5-dimethylindolizin-7-yl)-N2-(4-methyl-3-(5-(methylsulfonyl)-1H-tetrazol-1-yl)phenyl)pyrimidine-2,4-diamine]: under “Homo sapiens, T-cell, 24 h”, the EC50 was greater than 10000 nM.

As for `Cn1nc2n(c1=O)-c1cc(Nc3ncc(F)c(N[C@@H]4C[C@@H]5CCCN5C(C)(C)C4)n3)ccc1OC2(CO)CO[Si](C)(C)C(C)(C)C` (stereo partly drawn) [Compound 287, 5-fluoro-N2-(1H-2,4-dihydron-4-(hydroxymethyl)-4-(((1,1-dimethylethyl)dimethylsilyl)oxymethyl)-2-methyl-[1,2,4]triazolo[3,4-c][1,4]benzoxazin-1-one-8-yl)-N4-((7R,8aS)-octahydro-5,5-dimethylindolizin-7-yl)pyrimidine-2,4-diamine], where the note is “T-cell”, the EC50 is 1000 to 10000 nM.

For the setting “Homo sapiens, T-cell, 24 h”, `Cn1nc2n(c1=O)-c1cc(Nc3ncc(F)c(N[C@@H]4C[C@@H]5CCCN5C(C)(C)C4)n3)ccc1OC2(CO)CO` [Compound 288, 5-fluoro-N2-(1H-2,4-dihydron-4,4-di(hydroxymethyl)-2-methyl-[1,2,4]triazolo[3,4-c][1,4]benzoxazin-1-one-8-yl)-N4-((7R,8aS)-octahydro-5,5-dimethylindolizin-7-yl)pyrimidine-2,4-diamine] had an EC50 of 1000 to 10000 nM.

Turning to `Cc1ccc(Nc2ncc(F)c(N[C@@H]3C[C@@H]4CCCN4C(C)(C)C3)n2)cc1-n1nnn(CC(C)(C)O)c1=O` [Compound 289, 1-(5-(4-((7R,8aS)-octahydro-5,5-dimethylindolizin-7-ylamino)-5-fluoropyrimidin-2-ylamino)-2-methylphenyl)-4-(2-hydroxy-2-methylpropyl)-1H-tetrazol-5(4H)-one], the EC50 (Homo sapiens, T-cell, 24 h) was less than 100 nM.

With `COc1ccc(Nc2ncc(F)c(N[C@@H]3C[C@@H]4CCCN4C(C)(C)C3)n2)cc1-n1nnn(CC(C)(C)O)c1=O` [Compound 290, 1-(5-(4-((7R,8aS)-octahydro-5,5-dimethylindolizin-7-ylamino)-5-fluoropyrimidin-2-ylamino)-2-methoxyphenyl)-4-(2-hydroxy-2-methylpropyl)-1H-tetrazol-5(4H)-one], the EC50 (Homo sapiens, T-cell, 24 h) fell in the range of 100 to 500 nM.

In the case of `Cn1nc2n(c1=O)-c1cc(Nc3ncc(F)c(N[C@@H]4C[C@@H]5CCCN5C(C)(C)C4)n3)ccc1OC2` [Compound 291, 5-fluoro-N2-(1H-2,4-dihydron-2-methyl-[1,2,4]triazolo[3,4-c][1,4]benzoxazin-1-one-8-yl)-N4-((7R,8aS)-octahydro-5,5-dimethylindolizin-7-yl)pyrimidine-2,4-diamine], under “Homo sapiens, T-cell, 24 h”, the EC50 was 100 to 500 nM.

Compound `Cn1nc2n(c1=O)-c1cc(Nc3ncc(F)c(N[C@@H]4C[C@@H]5CCCN5C(C)(C)C4)n3)ccc1OCC2(C)O` (stereo partly drawn) [Compound 292, 5-fluoro-N2-(1H-2,3,4,5-tetrahydron-2,4-dimethyl-4-hydroxy-[1,2,4]triazolo[4,5-c][1,5]benzoxazepin-1-one-9-yl)-N4-((7R,8aS)-octahydro-5,5-dimethylindolizin-7-yl)pyrimidine-2,4-diamine] came in with an EC50 (Homo sapiens, T-cell, 24 h) of 500 to 1000 nM.

For the setting “Homo sapiens, T-cell, 24 h”, `Cn1nc2n(c1=O)-c1cc(Nc3ncc(F)c(N[C@@H]4C[C@@H]5CCCN5C(C)(C)C4)n3)ccc1OC21COC1` [Compound 293, 5-fluoro-N2-(1H-2,4-dihydron-spiro(2H-1,4-benzoxazine-4,3′-[3H]oxetan)-2-methyl-[1,2,4]triazolo[3,4-c][1,4]benzoxazin-1-one-8-yl)-N4-((7R,8aS)-octahydro-5,5-dimethylindolizin-7-yl)pyrimidine-2,4-diamine] returned an EC50 of 100 to 500 nM.

The compound `Cn1nc2n(c1=O)-c1cc(Nc3ncc(F)c(N[C@@H]4C[C@@H]5CCCN5C(C)(C)C4)n3)ccc1OCC2(C)O` (stereo partly drawn) [Compound 295, 5-fluoro-N2-(1H-2,3,4,5-tetrahydron-2,4-dimethyl-4-hydroxy-[1,2,4]triazolo[4,5-c][1,5]benzoxazepin-1-one-9-yl)-N4-((7R,8aS)-octahydro-5,5-dimethylindolizin-7-yl)pyrimidine-2,4-diamine] had an EC50 of 500 to 1000 nM.

For the setting “Homo sapiens, T-cell, 24 h”, `COCC1(COC)Oc2ccc(Nc3ncc(F)c(N[C@@H]4C[C@@H]5CCCN5C(C)(C)C4)n3)cc2-n2c1nn(C)c2=O` [Compound 296, 5-fluoro-N2-(1H-2,4-dihydron-2-methyl-4,4-di(methoxymethyl)[1,2,4]triazolo[3,4-c][1,4]benzoxazin-1-one-8-yl)-N4-((7R,8aS)-octahydro-5,5-dimethylindolizin-7-yl)pyrimidine-2,4-diamine] displayed an EC50 of 500 to 1000 nM.

Turning to `CC1(C)CC[C@H]2C[C@@H](Nc3nc(Nc4ccc(N5CCOCC5)c(OC(F)F)c4)ncc3F)CCN21` [Compound 297], the EC50 (Homo sapiens, T-cell, 24 h) is 100 to 500 nM.

As to `CC1(C)CC[C@H]2C[C@@H](Nc3nc(Nc4ccc(OC5COC5)c(OC(F)F)c4)ncc3F)CCN21` [Compound 298, N2-(3-(Difluoromethoxy)-4-(oxetan-3-yloxy)phenyl)-N4-((7S,8aS)-3,3-dimethyloctahydroindolizin-7-yl)-5-fluoropyrimidine-2,4-diamine], the EC50 (Homo sapiens, T-cell, 24 h) lay within 100 to 500 nM.

For the compound `COc1ccc(Nc2ncc(F)c(N[C@H]3CCN4[C@@H](CCC4(C)C)C3)n2)cc1OC(F)F` [Compound 299, N2-(3-(Difluoromethoxy)-4-methoxyphenyl)-N4-((7S,8aS)-3,3-dimethyloctahydroindolizin-7-yl)-5-fluoropyrimidine-2,4-diamine], the EC50 (Homo sapiens, T-cell, 24 h) lay within 100 to 500 nM.

Consider `CC1CN(c2ccc(Nc3ncc(F)c(N[C@H]4CCN5[C@@H](CCC5(C)C)C4)n3)cc2OC(F)F)CC(C)O1` (stereo partly drawn) [Compound 300, N2-(3-(Difluoromethoxy)-4-(2,6-dimethylmorpholino)phenyl)-N4-((7S,8aS)-3,3-dimethyloctahydroindolizin-7-yl)-5-fluoropyrimidine-2,4-diamine], for which, where the note is “Homo sapiens, T-cell, 24 h”, the EC50 lay in the range of 100 to 500 nM.

`CC1(C)CC[C@H]2C[C@@H](Nc3nc(Nc4cc(-n5nnnc5C5COC5)c(C5CC5)cc4F)ncc3F)CCN21` [Compound 301, N2-(4-Cyclopropyl-2-fluoro-5-(5-(oxetan-3-yl)-1H-tetrazol-1-yl)phenyl)-N4-((7S,8aS)-3,3-dimethyloctahydroindolizin-7-yl)-5-fluoropyrimidine-2,4-diamine] registered an EC50 (Homo sapiens, T-cell, 24 h) of less than 100 nM.

Regarding `CC1(C)CC[C@H]2C[C@@H](Nc3nc(Nc4ccc(N5CC6(COC6)C5)c(OC(F)F)c4)ncc3F)CCN21` [Compound 302, N2-(3-(Difluoromethoxy)-4-(2-oxa-6-azaspiro[3.3]heptan-6-yl)phenyl)-N4-((7S,8aS)-3,3-dimethyloctahydroindolizin-7-yl)-5-fluoropyrimidine-2,4-diamine], the EC50 (Homo sapiens, T-cell, 24 h) was 500 to 1000 nM.

Take `CC1(C)CC[C@H]2C[C@@H](Nc3nc(Nc4ccc(OCCO)c(OC(F)F)c4)ncc3F)CCN21` [Compound 303, 2-(2-(Difluoromethoxy)-4-((4-(((7S,8aS)-3,3-dimethyloctahydroindolizin-7-yl)amino)-5-fluoropyrimidin-2-yl)amino)phenoxy)ethan-1-ol]: under “Homo sapiens, T-cell, 24 h”, the EC50 is 100 to 500 nM.

`CC1(C)CC[C@H]2C[C@@H](Nc3nc(Nc4ccc(OC5CC(O)C5)c(C#N)c4)ncc3F)CCN21` (stereo partly shown) [Compound 304]: where the note is “Homo sapiens, T-cell, 24 h”, the EC50 fell in the range of 100 to 500 nM.

Under “Homo sapiens, T-cell, 24 h”, `CC1(C)CC[C@H]2C[C@@H](Nc3nc(Nc4ccc(OC5CC(O)C5)c(C(F)(F)F)c4)ncc3F)CCN21` (stereo partly drawn) [Compound 305, 3-(4-((4-(((7S,8aS)-3,3-Dimethyloctahydroindolizin-7-yl)amino)-5-fluoropyrimidin-2-yl)amino)-2-(trifluoromethyl)phenoxy)cyclobutan-1-ol] had an EC50 of 100 to 500 nM.

Take `CC1(C)CC[C@H]2C[C@@H](Nc3nc(Nc4ccc(OC5CC(O)C5)c(OC(F)F)c4)ncc3F)CCN21` (stereo partly drawn) [Compound 306, 3-(2-(Difluoromethoxy)-4-((4-(((7S,8aS)-3,3-dimethyloctahydroindolizin-7-yl)amino)-5-fluoropyrimidin-2-yl)amino)phenoxy)cyclobutan-1-ol]: the EC50 (Homo sapiens, T-cell, 24 h) was in the range of 100 to 500 nM.

Compound `CC1(C)CC[C@H]2C[C@@H](Nc3nc(Nc4ccc(OCCCO)c(OC(F)F)c4)ncc3F)CCN21` [Compound 307, 3-(2-(Difluoromethoxy)-4-((4-(((7S,8aS)-3,3-dimethyloctahydroindolizin-7-yl)amino)-5-fluoropyrimidin-2-yl)amino)phenoxy)propan-1-ol] came in with an EC50 (Homo sapiens, T-cell, 24 h) of 100 to 500 nM.

As usually defined, the EC50 is the concentration that produces a half-maximal response.
